From patent publication US20210179853A1, “DRUG THAT REACTS WITH ACROLEIN, USE THEREOF AND NOVEL COMPOUND” (RIKEN, priority 2018, published 2021)

Legend:
acrolein = test: Selective detection of acrolein: fluorescence staining of 11 normal and cancer cell lines; assay type: cell-based, human; details: 2.5-22.5 μM, 30 minutes at room temperature, with a higher concentration; FIG. 1
Procedure: The following 11 cell lines were seeded in 96 wells (4×10^4 cells/well) and left to stand for 24 hours before treatment so that the cell lines were adhered to the wells.
Normal cell: normal human diploid fibroblast (TIG3), normal human umbilical vein endothelial cell (HUVEC), normal human mammary gland cell (MCF10A)
Cancer cell: SKBR3 (human breast cancer cell), MDA-MB-231 (human breast cancer cell), BxPC3 (human pancreatic cancer cell), HT29 (human colonic cancer cell), MCF7 (human breast cancer cell), A549 (human lung cancer cell), HeLaS3 (human cervical cancer cell), PC3 (human prostatic cancer cell)
The cells were treated by adding, to media, 100 μL of TAMRA-PhN3 solutions (2.5 μM, 7.5 μM, 12.5 μM, 17.5 μM, 22.5 μM) described in Non-patent Literature 1 and Example 2. Then, the cells were incubated at room temperature for 30 minutes. The cells were fixed by paraformaldehyde, and fluorescence was recorded with use of Spectra Max M2e (Molecular Devices, LLC.).
In FIG. 1, the vertical axis represents a relative fluorescence intensity (arbitrary unit), and the horizontal axis represents a result of staining (fluorescence) of each normal or cancer cell.

[1] = test system: acrolein that is generated from a cell; test: Sensitivity comparison with conventional detection reagent: staining of normal and cancer cells; assay type: cell-based, human; details: for acrolein concentration level that can be detected: acrolein generated from a cell, suggested from FIG. 3 staining; for identification of localization and morphology of a cancer cell: at a low reagent concentration (0.25-1.5 μM, 5 minutes)
Procedure: Respective detection sensitivities of a detection reagent (TAMRA-PhN3) represented by Formula below and the compound 7 (TAMRA-di-iPr-PhN3) prepared in Example 1 were compared. Cells illustrated in FIG. 3 (for description of cell strains, see also Reference Example 1) were each immersed in an aqueous solution, containing the detection reagent at a concentration of 0.25 μM, 0.75 μM, or 1.5 μM, for 5 minutes so as to be stained.

[2] = test system: invasive ductal carcinoma-positive, ductal carcinoma in situ-positive and cancer-negative tissue; test: Staining of cancer tissue in a living tissue state; assay type: cell-based; details: 5, 10, 20 μM, 5 minutes at room temperature; FIG. 2
Procedure: An invasive ductal carcinoma-positive tissue (IDC-positive), a ductal carcinoma in situ-positive tissue (DCIS-positive), and a cancer-negative tissue (Cancer-negative) were each immersed in a TAMRA-PhN3 solution (5 μM, 10 μM, 20 μM). These tissues were incubated at room temperature for 5 minutes. The tissues were each stained in a living tissue state. […] Note that cell nuclei are stained with DAPI.
In FIG. 2, “Eyesight” indicates a photograph of each tissue that has been stained, and “Microscopy (×1)”, “Microscopy (×200)”, and “Microscopy (×400)” each indicate results of observations carried out with use of microscopes having respective magnifications of 1 time, 200 times, and 400 times.

Row | Compound | reaction product with acrolein (relative fluorescence intensity) (acrolein) | acrolein concentration level that can be detected [1] | identification of localization and morphology of a cancer cell [1] | observation of localization and morphology of a cancer cell in a living tissue [2] | detection sensitivity relative to TAMRA-PhN3 ([1]; cells immersed in aqueous solution of reagent at 0.25, 0.75 or 1.5 μM for 5 minutes, FIG. 3)
1 | CN(C)c1ccc2c(-c3ccc(C(=O)NCc4ccc(N=[N+]=[N-])cc4)cc3C(=O)[O-])c3ccc(=[N+](C)C)cc-3oc2c1 [TAMRA-PhN3] | increase in reaction product (fluorescence intensity) | nM-level | cannot be identified | possible to observe localization and morphology of a cancer cell in detail in a living tissue | 
2 | CC(C)c1cc(CNC(=O)c2ccc(-c3c4ccc(=[N+](C)C)cc-4oc4cc(N(C)C)ccc34)c(C(=O)[O-])c2)cc(C(C)C)c1N=[N+]=[N-] [compound 7, 5-carboxymethylrhodamine-diisopropylphenylazide] |  | pM level | possible to identify localization and morphology of a cancer cell |  | not less than 100 times
